# Test results: patent publication US20190350940A1, “PLATINUM COMPOUNDS, COMPOSITIONS, AND USES THEREOF” (priority 2015, published 2019)
# Several values for one entry are separate records, joined by “and”; a condition that tells them apart may be missing. Equal entries are not always repeated. Entries after “also recorded” stand apart in the source; their conditions may differ.
# What was measured:
# [1] = pH stability: pH range screen in Britton Robinson buffer (Impurity 2 formation); format: physicochemical; conditions: 0.1 mg/ml in Britton Robinson buffer, room temperature
# Experimental: It has been well established in the literature that the maleimide group is susceptible to a ring-opening product at physiological pH values. In order to determine the stability of Compound 8 at a range of pH values, a stock solution of 10 mg/ml Compound 8 in N,N-dimethylformamide (DMF) was spiked into a series of Britton Robinson buffers with pH set at values of 2, 4, 5, 6, 7.3, and 8 to make a final concentration of 0.1 mg/ml Compound 8. The amount of Impurity 2 (maleimide ring opening impurity) that was produced over the course of 24 hr at room temperature is shown in FIG. 1.
# [2] = pH stability: acidifying agents versus citrate buffered saline; format: physicochemical; conditions: room temperature
# Experimental: In order to determine whether a buffer would be required to maintain stability, two acidifying agents, hydrochloric acid and citric acid, were evaluated with respect to a control formulation in 5 mM citrate buffered saline. All vehicles were brought to a pH of 4 in saline and each formulation was made at 1 mg/ml concentration in each vehicle.
# Microsomal stability = format: in vitro ADME; conditions: NADPH-free controls
# Description: Microsomal stability could not be performed because negative controls failed. […] This is consistent with literature reports that microsomes contain protein thiols (Liebler D C, Meredith M J, Guengerich F P. Formation of glutathione conjugates by reactive metabolites of vinylidene chloride in microsomes and isolated hepatocytes. Cancer Res 1985; 45(1):186-93, the contents of which are incorporated herein by reference in their entirety), would react with Compound 8. CYP inhibition was studied to determine whether Compound 8 has an inhibitory effect on microsomes.
# [3] = Platinum pharmacokinetics/toxicokinetics in rat; conditions: in vivo
# Experimental: Platinum in the plasma ultrafiltrate was considered free drug (non-protein bound), while the platinum in the plasma was a combination of protein bound and free drug.
# Groups of 30 animals (15/sex) each received vehicle control or Compound 8 9, 14, 19, or 6 mg/kg. Groups of 20 animals (10/sex) received Compound 8 9, 14, 19, or 6 mg/kg and 6 animals (3/sex) received vehicle control in the TK portion of the study.
# [4] = Temperature effects: mock manufacturing process; format: physicochemical; conditions: after 24 hrs
# Experimental: In order to determine the effect of both temperature and light on the formation of the two main degradation products, mock manufacturing processes and mock clinical dilution studies were conducted. The mock process was simulated by formulating and holding the Compound 8 drug product at room temperature or under cold conditions (e.g. ice bath) for discreet amounts of time that would simulate the large scale manufacturing process. Once the samples went through the mock manufacturing process, they were stored at −20° C., as a frozen solution, and then thawed as they would be in the clinic prior to administration. For the mock clinical dilution study, each solution was diluted in saline, at the lowest dilution factor expected in the clinic. Then the diluted formulations were stored in syringes at room temperature and then assayed for potency and total impurities (from both procedures) at the end of the day.
# For the mock manufacturing process, the room temperature samples were formulated and stored at room temperature for a total of 8 hrs and then refrigerated overnight. In contrast, the cold samples were formulated on ice, stored in the 2-8° C. for a total of 8 hrs, and at the end of the day frozen to −20° C.
# female Beagle dogs = test: Cardiovascular and respiratory effects in Beagle dogs (Compound 8-TX-005); format: in vivo, dog
# Experimental: The cardiovascular and respiratory effects of Compound 8 administered IV were evaluated in Beagle dogs (Compound 8-TX-005).
# human plasma = test: In vitro plasma protein binding, human plasma (Compound 8-DMPK-008); format: in vitro ADME; conditions: incubation 10 minutes at 37° C.
# CYP3A4 = CYP3A4 (Homo sapiens, UniProt P08684); test: CYP inhibition, 3A4; format: in vitro ADME
# Sequence of CYP3A4 (P08684 whole entry): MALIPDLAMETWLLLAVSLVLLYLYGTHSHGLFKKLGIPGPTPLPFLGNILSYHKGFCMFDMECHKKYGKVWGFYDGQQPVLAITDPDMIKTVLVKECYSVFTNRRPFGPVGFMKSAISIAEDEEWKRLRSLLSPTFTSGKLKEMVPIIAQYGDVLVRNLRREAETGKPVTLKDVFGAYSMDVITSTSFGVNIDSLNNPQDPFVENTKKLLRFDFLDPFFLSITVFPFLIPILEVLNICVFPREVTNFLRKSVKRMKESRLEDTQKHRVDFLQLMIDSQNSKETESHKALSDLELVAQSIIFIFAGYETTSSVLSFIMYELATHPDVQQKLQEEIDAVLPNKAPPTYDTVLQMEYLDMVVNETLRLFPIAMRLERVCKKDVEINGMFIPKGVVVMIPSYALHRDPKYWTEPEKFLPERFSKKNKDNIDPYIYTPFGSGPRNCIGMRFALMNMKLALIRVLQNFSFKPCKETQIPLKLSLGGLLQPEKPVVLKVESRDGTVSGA
# NCI-H520 human NSCLC = test: NCI-H520 lung xenograft model; format: in vivo, mouse; conditions: mouse, in vivo
# Experimental: The effect of Compound 8 also was evaluated in the NCI-H520 human NSCLC nude mouse (female CrTac:NCr-Foxn1^nu) xenograft model. […] All treatments were statistically significant compared to vehicle (p<0.0001).
# rat plasma = test: In vitro plasma protein binding, rat plasma (Compound 8-DMPK-008); format: in vitro ADME; conditions: incubation 10 minutes at 37° C.
# male rats = test: Single dose intravenous dose range-finding toxicity study in male rats (Compound 8-TX-001); format: in vivo; conditions: rat
# Experimental: (§1) This study (Compound 8-TX-001) was designed as a dose range finding study to support the dose selection for the repeat-dose IV toxicity GLP study in rats (Compound 8-TX-007).
# (§2) The test article, Compound 8, was formulated prior to dosing as a solution in 5 mM citrate buffered saline (0.9% sodium chloride), pH about 4-4.5, at nominal concentrations of 2.7, 1.4, 1.9, and 2.3 mg/mL. Compound 8 was administered via IV injection to groups of 3 animals each at doses of 27, 14, 19, and 23 mg/kg. Dose formulations were all within the acceptance criteria (±10% of target concentration) ranging from 98.8 to 106.2 percent of target concentration. Assessment of toxicity was based on mortality, clinical observations, body weight, and food consumption, and clinical and anatomic pathology.
# [5] = as above; format: in vivo; conditions: male, rat, in vivo, iv, single IV dose, male rats, N=3 per group; read-out: MTD and STD10
# Experimental: as §1, §2
# CYP2B6 = CYP2B6 (Homo sapiens, UniProt P20813); test: CYP inhibition, 2B6; format: in vitro ADME
# Sequence of CYP2B6 (P20813 whole entry): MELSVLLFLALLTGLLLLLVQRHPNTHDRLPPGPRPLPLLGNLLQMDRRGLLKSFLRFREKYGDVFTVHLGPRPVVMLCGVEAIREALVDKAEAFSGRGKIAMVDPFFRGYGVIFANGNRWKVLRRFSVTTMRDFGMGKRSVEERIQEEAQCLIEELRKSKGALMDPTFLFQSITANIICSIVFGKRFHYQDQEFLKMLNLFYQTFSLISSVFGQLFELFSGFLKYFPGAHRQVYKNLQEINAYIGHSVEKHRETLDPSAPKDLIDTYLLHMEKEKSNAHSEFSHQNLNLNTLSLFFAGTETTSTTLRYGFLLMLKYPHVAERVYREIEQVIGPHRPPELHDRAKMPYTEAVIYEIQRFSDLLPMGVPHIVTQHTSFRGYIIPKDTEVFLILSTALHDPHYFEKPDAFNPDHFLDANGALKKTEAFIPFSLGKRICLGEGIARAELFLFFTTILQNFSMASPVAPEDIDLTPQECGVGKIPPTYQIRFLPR
# CYP2C19 = CYP2C19 (Homo sapiens, UniProt P33261); test: CYP inhibition, 2C19; format: in vitro ADME
# Sequence of CYP2C19 (P33261 whole entry): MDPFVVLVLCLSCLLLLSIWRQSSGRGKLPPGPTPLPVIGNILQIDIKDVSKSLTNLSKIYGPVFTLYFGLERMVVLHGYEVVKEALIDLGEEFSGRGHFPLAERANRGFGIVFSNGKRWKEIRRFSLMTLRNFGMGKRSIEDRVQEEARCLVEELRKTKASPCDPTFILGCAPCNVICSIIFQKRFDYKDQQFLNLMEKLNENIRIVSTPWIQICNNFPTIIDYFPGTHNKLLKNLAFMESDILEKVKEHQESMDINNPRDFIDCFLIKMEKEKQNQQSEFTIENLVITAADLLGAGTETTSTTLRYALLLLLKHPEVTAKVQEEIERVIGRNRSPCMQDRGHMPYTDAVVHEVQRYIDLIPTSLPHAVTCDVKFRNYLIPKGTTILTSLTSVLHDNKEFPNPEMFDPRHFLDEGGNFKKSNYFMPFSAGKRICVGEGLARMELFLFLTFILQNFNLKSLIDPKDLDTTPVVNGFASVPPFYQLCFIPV
# Calu-6 human NSCLC = test: Calu-6 lung xenograft model; format: in vivo, mouse; conditions: mouse, in vivo
# Experimental: The effect of Compound 8 was evaluated in the Calu-6 human NSCLC nude mouse (female Crl:NU(NCr)-Foxn1^nu) xenograft model.
# [6] = formulated under cold conditions
smiles,measurement,setting,value
CC(=O)[O][Pt]([NH2])([NH2])([Cl])([Cl])[O]C(=O)NCCCCCN1C(=O)C=CC1=O [Compound 8],Impurity 2 (maleimide ring opening impurity) formation,"[1]; pH 5, 4 hr",not detected
same,Impurity 2 (maleimide ring opening impurity) formation,"[1]; pH 6, within 1 hr",not detected
same,Impurity 2 (maleimide ring opening impurity) formation,"[1]; pH values below 4, up to 24 hr",not produced
same,Impurity 2 formation,"[2]; 1 mg/ml in 5 mM citrate buffered saline pH 4, 24 hr",inhibits the formation of Impurity 2
same,Impurity 2 formation,"[2]; 1 mg/ml in saline brought to pH 4 with hydrochloric acid, after 24 hrs",over 2 % by area
same,Stability in microsome preparations,Microsomal stability,below the limit of quantitation; also recorded: disappeared quickly
same,Ultrafiltrate levels as share of the total platinum levels,[3]; both,approximately 1%
same,"RBC platinum concentrations, Day 21 relative to Day 1",[3]; 19 mg/kg,did not result in significant accumulation of platinum in the RBCs
same,Formation of Impurity 1,[4]; formulated at room temperature,~0.8%
same,Formation of Impurity2,[4]; formulated at room temperature,~0.3%
same,Formation of Impurity 1,[4]; [6],< 0.3%
same,Formation of Impurity2,[4]; [6],~0.1%
same,"Increases in blood pressure (slight, non-dose-dependent)","female Beagle dogs; 6 and 10 mg/kg, between 6 and 12 hours following treatment",9-16 % above controls
same,Doses with no observable adverse effects on cardiovascular or pulmonary function,"female Beagle dogs; IV, female Beagle dogs",≤ 10 mg/kg
same,"Doses with no observable adverse effects on cardiovascular or pulmonary function, as HED","female Beagle dogs; IV, female Beagle dogs",≤ 200 mg/m^2
same,Test article-related clinical observations,"female Beagle dogs; all animals, approximately 24 hours post-dose",observations of vomitus
same,"Mortality, body temperature, heart rate, ECG parameters (PR, RR, QRS, QT, QTc), respiratory rate","female Beagle dogs; single IV injection 6 and 10 mg/kg, female Beagle dogs",did not produce mortality or changes
same,Protein bound,human plasma,> 99%
same,IC50,CYP3A4,1960 nM
same,Mean maximal BW loss,NCI-H520 human NSCLC; 10 mg/kg,2.7%
same,Mean maximal BW loss,NCI-H520 human NSCLC; 15 mg/kg,11%
same,Protein bound,rat plasma,> 99%
same,Renal function and renal injury,"male rats; in vivo, 14 mg/kg",Evidence of reduced renal function and renal injury
same,"Inflammatory response (leukocytes, neutrophils, monocytes, lymphocytes)","male rats; in vivo, 19 mg/kg",Evidence of an inflammatory response
same,Body weight,"male rats; in vivo, 23 mg/kg",Decreases in body weight were noted throughout the study
same,MTD and STD10 (MTD dose),"male rats; single IV dose, corresponds to 19 mg/kg",122 mg/m^2 and 120 (MTD*) mg/m^2 and 120 (MTD^1) mg/m^2
same,MTD,[5],19 mg/kg
same,IC50,CYP2B6,582 nM
same,IC50,CYP2C19,2720 nM
same,Mean maximal BW loss,Calu-6 human NSCLC; 10 mg/kg,0.9%
same,Mean maximal BW loss,Calu-6 human NSCLC; 15 mg/kg,3.2%
